In ChEMBL document CHEMBL1201862, “PubChem BioAssay data set” (2004) one finds IC50, AC50 and EC50 data, which are given here for six compounds.

In experiment [1] the target is T1, Neuropeptides B/W receptor type 1 (Homo sapiens, UniProt P48145).
T1 sequence (P48145 whole entry): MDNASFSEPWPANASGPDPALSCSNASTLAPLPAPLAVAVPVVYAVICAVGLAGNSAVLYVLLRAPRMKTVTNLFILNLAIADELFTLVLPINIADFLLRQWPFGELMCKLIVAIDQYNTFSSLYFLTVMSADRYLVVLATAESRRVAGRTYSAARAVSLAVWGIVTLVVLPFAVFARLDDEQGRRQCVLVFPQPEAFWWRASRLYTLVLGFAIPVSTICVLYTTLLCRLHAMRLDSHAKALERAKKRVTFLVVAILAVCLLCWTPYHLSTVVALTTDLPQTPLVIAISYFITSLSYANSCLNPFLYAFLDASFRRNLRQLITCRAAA
The experiment can be described thus: Fluorescence-based dose response cell-based high throughput screening assay to identify antagonists of the G-protein coupled receptor 7 (GPR7). [Related pubchem assays: 1952 (Screening assay (GPR7 antagonists).), 1880 (Summary AID.)]. Type of experiment: functional.

The target in another experiment is Keap1/Nrf2 (Homo sapiens, UniProt Q14145). The experiment can be described thus: Keap1-Nrf2 protein-protein interaction inhibitors, dose response, biochemical, fluorescence polarization, cherry-picked samples (AID 588683).
Experiment [2] is described as follows: growth suppression of PTEN-null colon cells, dose response, cell-based, HCT116 PTEN knockout (AID 1047).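 Note: HCT116 colon tumor cells with PTEN knocked out; cells exposed to compound for 60 hours before readout; potency for loss of cell viability measured by luminescence.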 In kind it is functional.
Experiment [3] can be described thus: inhibitors of SNCA 5'UTR-driven reporter translation, confirmation, H4 neuroglioma cells, luminescence (AID 1988). In kind it is functional, cell-based.
Experiment [4] has as its target Protein-tyrosine kinase 2-beta (Homo sapiens, UniProt Q14289).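 Note: potency of inhibitors of PYK2 kinase phosphorylation of poly-GT substrate.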
In a further experiment the target is 14-3-3 protein gamma (Homo sapiens, UniProt P61981). The experiment is described as follows: modulators of 14-3-3 gamma client binding – dose response (AID 711). Type of experiment: functional.
Experiment [5] deals with T2, Tyrosine-protein phosphatase non-receptor type 22 (Homo sapiens, UniProt Q9Y2R2).
T2 sequence (Q9Y2R2 whole entry): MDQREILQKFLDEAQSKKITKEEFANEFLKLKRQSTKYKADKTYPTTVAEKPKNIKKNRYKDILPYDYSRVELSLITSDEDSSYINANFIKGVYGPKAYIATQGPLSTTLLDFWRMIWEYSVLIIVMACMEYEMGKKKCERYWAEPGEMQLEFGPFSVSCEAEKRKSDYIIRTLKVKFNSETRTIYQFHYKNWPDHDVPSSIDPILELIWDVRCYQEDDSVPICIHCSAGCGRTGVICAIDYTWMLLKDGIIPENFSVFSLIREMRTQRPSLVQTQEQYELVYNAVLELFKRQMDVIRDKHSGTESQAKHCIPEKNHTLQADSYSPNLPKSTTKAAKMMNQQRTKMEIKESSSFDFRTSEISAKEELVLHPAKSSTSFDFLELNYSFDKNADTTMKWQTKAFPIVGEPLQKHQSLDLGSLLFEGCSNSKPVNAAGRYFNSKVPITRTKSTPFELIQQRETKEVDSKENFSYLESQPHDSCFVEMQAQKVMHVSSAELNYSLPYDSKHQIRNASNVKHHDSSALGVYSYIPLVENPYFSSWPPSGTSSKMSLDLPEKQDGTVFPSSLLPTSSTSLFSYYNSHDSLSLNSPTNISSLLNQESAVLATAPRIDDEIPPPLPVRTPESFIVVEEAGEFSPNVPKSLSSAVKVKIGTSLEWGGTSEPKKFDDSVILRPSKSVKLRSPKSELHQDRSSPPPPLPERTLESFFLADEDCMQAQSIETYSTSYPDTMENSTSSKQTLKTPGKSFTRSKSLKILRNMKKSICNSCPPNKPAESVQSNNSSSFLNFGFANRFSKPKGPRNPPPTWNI
The experiment can be described thus: PTPN22 phosphatase inhibition, dose response, selectivity assay for STEP inhibitor project, biochemical (AID 624241). Type of experiment: functional.

Experiment [6] concerns the target T3, Lysine-specific demethylase 4A (Homo sapiens, UniProt O75164).
T3 sequence (O75164 whole entry): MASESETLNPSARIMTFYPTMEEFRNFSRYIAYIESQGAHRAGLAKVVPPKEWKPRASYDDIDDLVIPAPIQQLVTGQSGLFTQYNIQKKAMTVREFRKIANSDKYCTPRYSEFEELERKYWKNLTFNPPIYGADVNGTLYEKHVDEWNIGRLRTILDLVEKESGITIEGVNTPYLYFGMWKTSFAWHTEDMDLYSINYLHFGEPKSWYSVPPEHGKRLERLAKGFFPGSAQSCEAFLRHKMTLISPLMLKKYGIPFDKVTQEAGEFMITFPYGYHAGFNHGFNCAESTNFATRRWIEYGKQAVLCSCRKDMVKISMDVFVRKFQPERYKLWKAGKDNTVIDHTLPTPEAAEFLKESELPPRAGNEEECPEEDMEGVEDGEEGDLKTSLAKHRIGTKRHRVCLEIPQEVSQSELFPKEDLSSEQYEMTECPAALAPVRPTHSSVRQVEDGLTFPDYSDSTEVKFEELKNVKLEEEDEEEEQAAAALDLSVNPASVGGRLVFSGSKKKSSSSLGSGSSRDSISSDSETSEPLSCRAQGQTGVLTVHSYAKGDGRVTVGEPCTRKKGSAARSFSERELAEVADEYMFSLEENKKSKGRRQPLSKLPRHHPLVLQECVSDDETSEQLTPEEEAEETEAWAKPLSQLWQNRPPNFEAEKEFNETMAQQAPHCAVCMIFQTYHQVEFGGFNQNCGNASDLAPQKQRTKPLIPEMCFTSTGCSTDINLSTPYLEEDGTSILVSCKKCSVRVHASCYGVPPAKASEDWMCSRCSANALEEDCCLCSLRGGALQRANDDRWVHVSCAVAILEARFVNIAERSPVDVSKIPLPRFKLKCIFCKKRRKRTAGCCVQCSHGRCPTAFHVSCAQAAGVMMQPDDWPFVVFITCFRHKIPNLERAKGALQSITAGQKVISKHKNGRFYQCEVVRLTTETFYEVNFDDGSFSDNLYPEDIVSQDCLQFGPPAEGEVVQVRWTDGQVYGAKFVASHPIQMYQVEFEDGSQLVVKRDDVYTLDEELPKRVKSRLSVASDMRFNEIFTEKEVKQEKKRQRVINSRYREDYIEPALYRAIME
The experiment can be described thus: JMJD2A histone demethylase inhibitors, dose response, selectivity assay for GASC-1 inhibitor project, biochemical, DELFIA europium, cherry-picked samples (AID 488840).

Experiment [7] addresses Lysine-specific demethylase 4C (Homo sapiens, UniProt Q9H3R0). The experiment can be described thus: GASC-1 (JMJD2C) histone demethylase inhibitors, dose response, biochemical, DELFIA europium, cherry-picked samples (AID 488835). In kind it is functional.
Experiment [8] has as its target T2, Tyrosine-protein phosphatase non-receptor type 22. The experiment can be described thus: SAR LYP1 Fluorescent Assay using pCAP substrate for In Vitro dose response studies - Set 2. [Related pubchem assays (depositor defined):AID1779, AID1784, AID2135, AID449727]. Type of experiment: functional.
Experiment [9] concerns the target Voltage-gated N-type calcium channel alpha-1B subunit/Amyloid beta A4 precursor protein-binding family A member 1 (Homo sapiens, UniProt Q00975+Q02410). Type of experiment: protein assay.
Experiment [10] concerns the target T2, Tyrosine-protein phosphatase non-receptor type 22. The experiment is described as follows: PubChem AID 2135.

Structures are written as SMILES. Activity calls are given as the source filed them.

Chain of Voltage-gated N-type calcium channel alpha-1B subunit/Amyloid beta A4 precursor protein-binding family A member 1 (Q00975 whole entry): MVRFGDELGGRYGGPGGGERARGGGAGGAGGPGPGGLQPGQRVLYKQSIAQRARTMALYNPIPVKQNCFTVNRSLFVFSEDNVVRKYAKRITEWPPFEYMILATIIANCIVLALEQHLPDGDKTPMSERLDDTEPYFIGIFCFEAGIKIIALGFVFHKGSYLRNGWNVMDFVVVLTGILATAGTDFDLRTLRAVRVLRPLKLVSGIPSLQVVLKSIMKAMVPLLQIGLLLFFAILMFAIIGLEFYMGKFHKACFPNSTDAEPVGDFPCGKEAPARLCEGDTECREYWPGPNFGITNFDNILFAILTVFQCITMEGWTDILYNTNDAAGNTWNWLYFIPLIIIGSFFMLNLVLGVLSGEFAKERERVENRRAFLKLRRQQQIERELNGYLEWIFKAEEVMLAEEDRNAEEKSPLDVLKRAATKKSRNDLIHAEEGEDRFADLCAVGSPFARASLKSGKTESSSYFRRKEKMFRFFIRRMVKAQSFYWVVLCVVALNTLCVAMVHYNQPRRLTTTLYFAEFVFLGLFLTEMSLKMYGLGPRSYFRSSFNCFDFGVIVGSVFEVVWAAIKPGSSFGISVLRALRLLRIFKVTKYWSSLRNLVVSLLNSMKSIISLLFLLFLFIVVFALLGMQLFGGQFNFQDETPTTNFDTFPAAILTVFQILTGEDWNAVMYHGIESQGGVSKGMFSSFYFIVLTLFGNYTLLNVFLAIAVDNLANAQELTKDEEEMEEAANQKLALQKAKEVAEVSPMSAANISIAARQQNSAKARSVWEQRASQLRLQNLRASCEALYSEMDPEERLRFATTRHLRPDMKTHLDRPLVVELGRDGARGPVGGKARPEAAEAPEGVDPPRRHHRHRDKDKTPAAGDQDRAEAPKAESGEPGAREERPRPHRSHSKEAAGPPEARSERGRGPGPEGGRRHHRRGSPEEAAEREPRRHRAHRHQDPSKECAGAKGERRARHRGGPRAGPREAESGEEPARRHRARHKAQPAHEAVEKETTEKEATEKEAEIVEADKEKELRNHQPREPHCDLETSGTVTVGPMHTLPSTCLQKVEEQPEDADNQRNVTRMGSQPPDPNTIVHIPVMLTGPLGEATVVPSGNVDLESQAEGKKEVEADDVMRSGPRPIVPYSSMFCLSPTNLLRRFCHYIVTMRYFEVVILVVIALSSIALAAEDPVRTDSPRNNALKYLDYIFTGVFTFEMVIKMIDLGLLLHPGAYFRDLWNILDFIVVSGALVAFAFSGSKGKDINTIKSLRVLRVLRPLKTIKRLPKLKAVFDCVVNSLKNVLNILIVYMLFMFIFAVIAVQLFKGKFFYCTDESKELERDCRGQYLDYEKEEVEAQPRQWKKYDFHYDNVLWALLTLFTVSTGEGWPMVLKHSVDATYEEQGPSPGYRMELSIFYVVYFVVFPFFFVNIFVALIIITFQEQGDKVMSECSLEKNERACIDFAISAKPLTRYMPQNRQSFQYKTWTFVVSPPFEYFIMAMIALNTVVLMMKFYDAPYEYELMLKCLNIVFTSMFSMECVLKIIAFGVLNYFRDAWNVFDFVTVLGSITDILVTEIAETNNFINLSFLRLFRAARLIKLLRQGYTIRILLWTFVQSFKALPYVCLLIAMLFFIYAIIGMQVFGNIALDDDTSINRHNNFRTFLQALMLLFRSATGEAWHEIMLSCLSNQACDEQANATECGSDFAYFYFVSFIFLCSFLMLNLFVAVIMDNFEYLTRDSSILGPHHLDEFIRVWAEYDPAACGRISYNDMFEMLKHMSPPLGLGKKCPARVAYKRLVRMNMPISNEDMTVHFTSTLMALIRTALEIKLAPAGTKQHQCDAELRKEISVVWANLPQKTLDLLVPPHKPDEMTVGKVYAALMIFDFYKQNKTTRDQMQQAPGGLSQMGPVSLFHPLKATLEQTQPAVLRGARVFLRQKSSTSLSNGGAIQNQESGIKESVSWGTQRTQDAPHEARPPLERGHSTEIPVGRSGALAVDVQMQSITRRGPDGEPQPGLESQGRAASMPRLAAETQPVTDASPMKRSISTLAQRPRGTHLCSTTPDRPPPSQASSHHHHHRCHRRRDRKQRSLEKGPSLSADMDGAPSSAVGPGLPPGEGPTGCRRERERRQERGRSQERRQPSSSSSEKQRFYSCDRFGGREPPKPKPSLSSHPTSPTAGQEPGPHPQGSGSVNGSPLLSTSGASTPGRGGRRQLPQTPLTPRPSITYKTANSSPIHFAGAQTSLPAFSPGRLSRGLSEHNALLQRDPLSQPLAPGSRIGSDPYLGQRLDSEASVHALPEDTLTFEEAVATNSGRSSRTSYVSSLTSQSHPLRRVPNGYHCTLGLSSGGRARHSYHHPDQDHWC
Chain of Voltage-gated N-type calcium channel alpha-1B subunit/Amyloid beta A4 precursor protein-binding family A member 1 (Q02410 whole entry): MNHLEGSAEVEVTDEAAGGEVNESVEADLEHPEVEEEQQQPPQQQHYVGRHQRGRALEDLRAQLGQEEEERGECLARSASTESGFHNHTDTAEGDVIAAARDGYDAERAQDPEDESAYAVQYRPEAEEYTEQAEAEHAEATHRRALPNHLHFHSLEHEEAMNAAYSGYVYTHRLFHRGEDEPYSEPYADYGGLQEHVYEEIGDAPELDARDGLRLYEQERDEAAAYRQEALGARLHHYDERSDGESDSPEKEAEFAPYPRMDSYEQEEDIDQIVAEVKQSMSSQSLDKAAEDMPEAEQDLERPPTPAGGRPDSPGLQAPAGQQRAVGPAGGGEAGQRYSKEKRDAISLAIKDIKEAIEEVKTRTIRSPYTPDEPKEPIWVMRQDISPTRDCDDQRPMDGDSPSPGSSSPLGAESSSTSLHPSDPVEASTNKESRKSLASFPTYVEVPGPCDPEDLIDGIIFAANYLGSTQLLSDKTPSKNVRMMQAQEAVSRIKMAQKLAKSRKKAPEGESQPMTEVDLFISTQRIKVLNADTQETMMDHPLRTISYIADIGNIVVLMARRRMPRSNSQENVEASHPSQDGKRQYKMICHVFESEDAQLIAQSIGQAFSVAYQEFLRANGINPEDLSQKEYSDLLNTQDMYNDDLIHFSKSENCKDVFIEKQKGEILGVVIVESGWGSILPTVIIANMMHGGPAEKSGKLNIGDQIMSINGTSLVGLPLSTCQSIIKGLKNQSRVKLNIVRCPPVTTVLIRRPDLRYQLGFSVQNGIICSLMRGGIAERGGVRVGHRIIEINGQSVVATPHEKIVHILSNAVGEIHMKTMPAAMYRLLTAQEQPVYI
Chain of Protein-tyrosine kinase 2-beta (Q14289 whole entry): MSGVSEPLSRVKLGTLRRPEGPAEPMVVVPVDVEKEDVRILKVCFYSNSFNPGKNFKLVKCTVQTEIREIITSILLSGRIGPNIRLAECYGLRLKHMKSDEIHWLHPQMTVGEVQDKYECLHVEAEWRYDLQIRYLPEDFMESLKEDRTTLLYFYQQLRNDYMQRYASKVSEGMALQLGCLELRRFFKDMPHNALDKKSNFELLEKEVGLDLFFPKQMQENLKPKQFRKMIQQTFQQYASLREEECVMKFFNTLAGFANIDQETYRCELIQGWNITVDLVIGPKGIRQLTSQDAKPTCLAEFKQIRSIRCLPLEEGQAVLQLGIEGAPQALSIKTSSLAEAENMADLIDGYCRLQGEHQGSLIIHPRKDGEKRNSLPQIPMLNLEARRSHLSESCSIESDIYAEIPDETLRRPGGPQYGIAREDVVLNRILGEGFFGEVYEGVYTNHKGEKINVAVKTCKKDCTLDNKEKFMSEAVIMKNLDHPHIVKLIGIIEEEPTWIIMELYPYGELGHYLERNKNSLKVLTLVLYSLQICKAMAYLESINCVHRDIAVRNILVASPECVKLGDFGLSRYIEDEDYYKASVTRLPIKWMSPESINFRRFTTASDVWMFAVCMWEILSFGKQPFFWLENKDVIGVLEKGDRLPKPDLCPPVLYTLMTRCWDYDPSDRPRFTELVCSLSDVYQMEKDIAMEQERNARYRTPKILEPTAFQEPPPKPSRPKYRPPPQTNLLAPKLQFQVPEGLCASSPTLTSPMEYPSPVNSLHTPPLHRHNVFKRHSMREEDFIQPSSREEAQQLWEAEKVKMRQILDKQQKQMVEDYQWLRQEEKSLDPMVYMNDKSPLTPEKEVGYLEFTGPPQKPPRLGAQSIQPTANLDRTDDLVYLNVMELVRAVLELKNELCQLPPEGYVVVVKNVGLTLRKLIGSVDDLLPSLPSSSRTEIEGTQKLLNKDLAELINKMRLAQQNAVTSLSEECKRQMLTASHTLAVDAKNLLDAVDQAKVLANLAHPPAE
Chain of 14-3-3 protein gamma (P61981 whole entry): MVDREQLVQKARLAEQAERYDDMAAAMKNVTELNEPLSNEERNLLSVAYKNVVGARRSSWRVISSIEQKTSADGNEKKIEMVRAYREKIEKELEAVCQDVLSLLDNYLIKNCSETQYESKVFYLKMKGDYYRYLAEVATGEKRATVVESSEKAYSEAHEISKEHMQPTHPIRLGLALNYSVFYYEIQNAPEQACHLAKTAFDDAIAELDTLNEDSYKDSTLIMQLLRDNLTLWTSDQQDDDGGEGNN

For `CCN1/C(=C/c2ccc3cc(C)ccc3[n+]2CC)Sc2cc(C)c(C)cc21`, the concentration for half-maximal inhibition (IC50) in experiment [1] is 9.2 µM (active).

Consider `Nc1ccc2nc3c(O)nc(S)nc3nc2c1`, for which, at Keap1/Nrf2, the AC50 was 3.55 µM (active).

As for `Cc1oc2c(c1C(=O)c1ccccc1)C(=O)C(=O)c1ccccc1-2`, the values for the EC50 in experiment [2] and in experiment [3] were 2.64 µM (active) and 8.93 µM (active), respectively. In addition, the concentration for half-maximal inhibition (IC50) in experiment [4] is given as > 69.5 µM (not active).

Turning to `O=C1CCCC2=C1C1(O)C(=O)c3ccccc3C1(O)O2` (configuration not stated), the IC50 on 14-3-3 protein gamma was > 50 µM (not active).

For the compound `CSc1ccc(C=NNc2ccc(S(=O)(=O)Nc3ccccc3C(=O)O)cc2[N+](=O)[O-])cc1`, in experiment [5], the half-inhibitory concentration (IC50) was 2.82 µM (active). The concentration at half-maximal activity (AC50) in experiment [6] was 12.4 µM (active); in [7] it was 5.43 µM (active).

Consider `O=C(O)COc1ccc(/C=N/NC(=O)c2ccc(-c3csc(Nc4ccc(Cl)cc4)n3)cc2)cc1`, for which the IC50 was 0.249 µM (active) in experiment [8], > 50 µM (inactive) in experiment [9] and 0.113 µM (active) in experiment [10].
